From patent US20080119542A1, “METHODS OF USING ARTEMISININ-LIKE COMPOUNDS TO PREVENT OR DELAY THE APPEARANCE OF CANCER” (UNIVERSITY OF WASHINGTON, priority 2002, published 2008)

Experiments:
[1] = system: mammary tumors; experiment: Tumor development in DMBA-treated rats given weekly oral intubations of artemisinin; type: in vivo, Female Sprague-Dawley rats; conditions: for Percentage of Animals with Tumors: artemisinin 10 mg/kg weekly oral intubation
Method: This Example describes a representative method for preventing or slowing the development of cancer in rats exposed to a carcinogen by administering artemisinin by weekly oral intubations.
Materials and Methods: Female Sprague-Dawley rats were administered a single intragastric dose of the carcinogen 7,12-dimethylbenz[a]anthracene (DMBA; Sigma Chemicals, St Louis, Mo.; 50 mg/kg body weight) suspended in olive oil (Sigma Chemicals, St Louis, Mo.; 25 mg/ml). Animals were randomly assigned to two treatment groups to receive either weekly oral intubations of artemisinin (Holley Pharmaceuticals, Fullerton, Calif.; 10 mg/kg at 10 mg/ml of olive oil) or olive oil (control). Artemisinin treatment began a week after DMBA administration. Animals were palpated for the presence of mammary tumors once weekly. The time and site of detection and size were recorded for each tumor in an animal.

[2] = system: mammary tumors; experiment: Tumor development in DMBA-treated rats given artemisinin mixed in food; type: in vivo, Female rats; conditions: artemisinin 0.05% in food, approximately 10 mg/kg/day
Excerpt: This Example describes a representative method for preventing or slowing the development of cancer in rats exposed to a carcinogen by providing artemisinin mixed in food.
Materials and Methods: Female rats were similarly treated with the carcinogen DMBA, as described in EXAMPLE 1. The rats were randomly assigned to two treatment groups. Artemisinin (0.05%) was mixed in the food of one group of animals starting the day immediately after DMBA treatment. Daily intake of artemisinin, based on the amount of food eaten each day, was estimated to be approximately 10 mg/kg/day. The other group of animals (controls) was given regular rat food.

[3] = cancer patient; oral 50 mg per day, intramuscular 60 mg/day, over 9 months; cited from earlier work

Compound: C[C@@H]1CC[C@H]2[C@@H](C)C(=O)O[C@@H]3O[C@@]4(C)CC[C@@H]1[C@]32OO4 [Artemisinin, artemisinin]
- Percentage of Animals with Tumors ([1]; week 6 after DMBA): 0%
- Percentage of Animals with Tumors ([1]; week 6 after DMBA, listed as artemisinin): none
- Percentage of Animals with Tumors ([1]; week 7 after DMBA): 9%
- Percentage of Animals with Tumors ([1]; week 9 after DMBA): 9%
- Percentage of Animals with Tumors ([1]; week 10 after DMBA): 9%
- Percentage of Animals with Tumors ([1]; week 11 after DMBA): 9%
- Percentage of Animals with Tumors ([1]; week 12 after DMBA): 27%
- Percentage of Animals with Tumors ([1]; week 13 after DMBA): 45%
- Percentage of Animals with Tumors ([1]; week 16 after DMBA): 45%
- Percentage of Animals with Tumors ([1]; week 17 after DMBA): 45%
- Percentage of Animals with Tumors ([1]; week 20 after DMBA): 54%
- Percentage of Animals with Tumors ([1]; week 29 after DMBA): 64%
- Percentage of Animals with Tumors ([1]; week 31 after DMBA): 64%
- Percentage of Animals with Tumors ([1]; week 38 after DMBA): 64%
- Appearance of tumors in carcinogen-treated animals ([1]; weekly artemisinin treatment vs olive oil controls): delayed the appearance of tumors
- Percentage of Animals with Tumors ([2]; week 6 after DMBA): 0%
- Percentage of Animals with Tumors ([2]; week 7 after DMBA): 0%
- Percentage of Animals with Tumors ([2]; week 8 after DMBA): 0%
- Percentage of Animals with Tumors ([2]; week 9 after DMBA): 0%
- Percentage of Animals with Tumors ([2]; week 10 after DMBA): 0%
- Percentage of Animals with Tumors ([2]; week 10 after DMBA, listed as artemisinin): none

Compound: C[C@H]1[C@H](OC(=O)CCC(=O)O)O[C@@H]2O[C@@]3(C)CC[C@H]4[C@H](C)CC[C@@H]1[C@@]24OO3 [artesunate]
- Adverse side effects [3]: No apparent adverse side effects
